From US20160108027A1, “SUBSTITUTED BENZOXAZOLES” (BAYER PHARMA AKTIENGESELLSCHAFT, priority 2013, published 2016)

Legend:
thrombin [1] = molecular target: T1, thrombin (Homo sapiens, UniProt P00734); assay: Measurement of the thrombin inhibition in buffer; format: biochemical; conditions: human thrombin 0.06 nmol/l in Tris buffer pH 7.4, 22° C., substrate Boc-Asp(OBzl)-Pro-Arg-AMC; in some cases means of individual determinations
Description: To determine the thrombin inhibition of the substances listed above, a biochemical test system is constructed in which the conversion of a thrombin substrate is used for determining the enzymatic activity of human thrombin. Here, thrombin cleaves aminomethylcoumarin, which is measured fluorescently, from the peptic substrate. The determinations are carried out in microtitre plates.
Substances to be tested are dissolved in various concentrations in dimethyl sulphoxide and incubated for 15 min with human thrombin (0.06 nmol/l dissolved in 50 mmol/l of Tris buffer [C,C,C-tris(hydroxymethyl)aminomethane], 100 mmol/l of sodium chloride, 0.1% BSA [bovine serum albumin], pH 7.4) at 22° C. The substrate (5 μmol/l Boc-Asp(OBzl)-Pro-Arg-AMC from Bachem) is then added. After 30 min of incubation, the sample is excited at a wavelength of 360 nm and the emission is measured at 460 nm. The measured emissions of the test mixtures with test substance are compared to the control mixtures without test substance (only dimethyl sulphoxide instead of test substance in dimethyl sulphoxide) and IC50 values are calculated from the concentration/activity relationships. Representative activity data from this test are given in Table 1 below (in some cases as means of individual determinations): […]

thrombin [2] = molecular target: T1, thrombin; assay: Determination of the thrombin-inhibitory activity in plasma samples (ecarin-activated); format: biochemical; conditions: citrate plasma, ecarin activation, fluorogenic thrombin substrate; in some cases means of individual determinations
Description: To determine the inhibition of thrombin in plasma samples, plasma […] is activated by ecarin. Thrombin activity and/or its inhibition by potential inhibitors is/are then measured fluorenscently by addition of a substrate.
The substances to be tested are dissolved in various concentrations in dimethyl sulphoxide and diluted with water. In white 96-well flat-bottomed plates, 20 μl of substance dilution are mixed with 20 μl of ecarin solution (ecarin reagent, from Sigma E-0504, final concentration 20 mU per reaction) in Ca buffer (200 mM Hepes+560 mM sodium chloride+10 mM calcium chloride+0.4% PEG) or with 20 μl of Ca buffer (as unstimulated control). Furthermore, 20 μl of fluorogenic thrombin substrate (from Bachem 1-1120, final concentration 50 μmol/1) and 20 μl of citrate plasma (from Octapharma) are added, and the mixture is homogenized well. The plate is measured in a SpectraFluorplus Reader using a 360 nm excitation filter and a 465 nm emission filter every minute over 20 minutes. […] Representative activity data from this test are given in Table 2 below (in some cases as means of individual determinations): […]

Row | IC50 (thrombin [1]) | IC50 (thrombin [2]) | SMILES
1 | 13 nM | 22 nM | COc1cc(C(=O)N2CC(C)(C)OCC2(C)CO)cc2nc(NCc3cc(Cl)ccn3)oc12 (racemic) [Example 38, (2-{[(4-Chloropyridin-2-yl)methyl]amino}-7-methoxy-1,3-benzoxazol-5-yl) [5-(hydroxymethyl)-2,2,5-trimethylmorpholin-4-yl]methanone]
2 | 50 nM | 50 nM | COCC1COC(C)(C)CN1C(=O)c1cc(OC)c2oc(NCc3cc(Cl)ccn3)nc2c1 (racemic) [Example 41, (2-{[(4-Chloropyridin-2-yl)methyl]amino}-7-methoxy-1,3-benzoxazol-5-yl) [5-(methoxymethyl)-2,2-dimethylmorpholin-4-yl]methanone]
3 | 27 nM | 34 nM | COc1cc(C(=O)N2CC(C)(C)OCC2CF)cc2nc(NCc3cc(Cl)ccn3)oc12 (racemic) [Example 42, (2-{[(4-Chloropyridin-2-yl)methyl]amino}-7-methoxy-1,3-benzoxazol-5-yl) [5-(fluoromethyl)-2,2-dimethylmorpholin-4-yl]methanone]
4 | 21 nM | 33 nM | COc1cc(C(=O)N2CC(C)OCC2CC(C)(C)O)cc2nc(NCc3cc(Cl)ccn3)oc12 (racemic) [Example 55, (2-{[(4-Chloropyridin-2-yl)methyl]amino}-7-methoxy-1,3-benzoxazol-5-yl) [5-(2-hydroxy-2-methylpropyl)-2-methylmorpholin-4-yl]methanone]
5 | 38 nM | 74 nM | COc1cc(C(=O)N2CC(C)OCC2CCO)cc2nc(NCc3cc(Cl)ccn3)oc12 (racemic) [Example 70, (2-{[(4-Chloropyridin-2-yl)methyl]amino}-7-methoxy-1,3-benzoxazol-5-yl) [5-(2-hydroxyethyl)-2-methylmorpholin-4-yl]methanone]
6 | 19 nM | 36 nM | COc1cc(C(=O)N2CC3(CC3)NC(=O)C2C)cc2nc(NCc3cc(Cl)ccn3)oc12 (racemic) [Example 76, 7-[(2-{[(4-Chloropyridin-2-yl)methyl]amino}-7-methoxy-1,3-benzoxazol-5-yl)carbonyl]-6-methyl-4,7-diazaspiro[2.5]octan-5-one]
7 | 13 nM | 19 nM | CCC1C(=O)NC2(CC2)CN1C(=O)c1cc(OC)c2oc(NCc3cc(Cl)ccn3)nc2c1 (racemic) [Example 78, 7-[(2-{[(4-Chloropyridin-2-yl)methyl]amino}-7-methoxy-1,3-benzoxazol-5-yl)carbonyl]-6-ethyl-4,7-diazaspiro[2.5]octan-5-one]
8 | 36 nM | 62 nM | COc1cc(C(=O)N2CC(C)(C)NC(=O)C2CC#N)cc2nc(NCc3cc(Cl)ccn3)oc12 (racemic) [Example 83, {1-[(2-{[(4-Chloropyridin-2-yl)methyl]amino}-7-methoxy-1,3-benzoxazol-5-yl)carbonyl]-5,5-dimethyl-3-oxopiperazin-2-yl}acetonitrile]
9 | 6.2 nM | 19 nM | CCO[C@@H]1CC(CO)N(C(=O)c2cc(OC)c3oc(NCc4cc(Cl)ccn4)nc3c2)C1 (single isomer, unassigned) [Example 2]
10 | 37 nM | 70 nM | COc1cc(C(=O)N2C[C@H](OCC(F)F)CC2CO)cc2nc(NCc3cc(Cl)ccn3)oc12 (single isomer, unassigned) [Example 7]
11 | 9.7 nM | 13 nM | [2H]C([2H])(C)O[C@@H]1CC(CC#N)N(C(=O)c2cc(OC)c3oc(NCc4cc(Cl)ccn4)nc3c2)C1 (single isomer, unassigned) [Example 9]
12 | 6.4 nM | 21 nM | COc1cc(C(=O)N2C[C@H](OC3CC3)C[C@H]2CO)cc2nc(NC(C)c3cc(Cl)ccn3)oc12 (single isomer, unassigned) [Example 15]
13 | 30 nM | 36 nM | COc1cc(C(=O)N2CCCC2(C)C(=O)N2CC(F)(F)C2)cc2nc(NCc3cc(Cl)ccn3)oc12 (single isomer, unassigned) [Example 16, (2-{[(4-Chloropyridin-2-yl)methyl]amino}-7-methoxy-1,3-benzoxazol-5-yl){2-[(3,3-difluoroazetidin-1-yl)carbonyl]-2-methylpyrrolidin-1-yl}methanone]
14 | 33 nM | 52 nM | COc1cc(C(=O)N2CCCC2(C)C(=O)N2CC(F)C2)cc2nc(NCc3cc(Cl)ccn3)oc12 (single isomer, unassigned) [Example 17, (2-{[(4-Chloropyridin-2-yl)methyl]amino}-7-methoxy-1,3-benzoxazol-5-yl){2-[(3-fluoroazetidin-1-yl)carbonyl]-2-methylpyrrolidin-1-yl}methanone]
15 | 17 nM | 27 nM | COc1cc(C(=O)N2CCCC2(C)C(=O)N2CCOCC2)cc2nc(NCc3cc(Cl)ccn3)oc12 (single isomer, unassigned) [Example 18, (2-{[(4-Chloropyridin-2-yl)methyl]amino}-7-methoxy-1,3-benzoxazol-5-yl) [2-methyl-2-(morpholin-4-ylcarbonyl)pyrrolidin-1-yl]methanone]
16 | 34 nM | 53 nM | COc1cc(C(=O)N2CC(C)OCC2(C)CO)cc2nc(NCc3cc(Cl)ccn3)oc12 (single isomer, unassigned) [Example 19, (2-{[(4-Chloropyridin-2-yl)methyl]amino}-7-methoxy-1,3-benzoxazol-5-yl) [5-(hydroxymethyl)-2,5-dimethylmorpholin-4-yl]methanone]
17 | 36 nM | 66 nM | COc1cc(C(=O)N2CC(C)OCC2(C)CO)cc2nc(NCc3cc(Cl)ccn3)oc12 (single isomer, unassigned) [Example 20, (2-{[(4-Chloropyridin-2-yl)methyl]amino}-7-methoxy-1,3-benzoxazol-5-yl) [5-(hydroxymethyl)-2,5-dimethylmorpholin-4-yl]methanone]
18 | 0.8 nM | 6.5 nM | COc1cc(C(=O)N2CC(C)(CC(C)O)OCC2CF)cc2nc(NCc3cc(Cl)ccn3)oc12 (single isomer, unassigned) [Example 23, (2-{[(4-Chloropyridin-2-yl)methyl]amino}-7-methoxy-1,3-benzoxazol-5-yl) [5-(fluoromethyl)-2-(2-hydroxypropyl)-2-methylmorpholin-4-yl]methanone]
19 | 2.5 nM | 12 nM | COc1cc(C(=O)N2CC(C)(CCO)OC[C@H]2C)cc2nc(NCc3cc(Cl)ccn3)oc12 (single isomer, unassigned) [Example 24]
20 | 1 nM | 6.8 nM | COc1cc(C(=O)N2CC(C)(CC(C)O)OC[C@H]2C)cc2nc(NCc3cc(Cl)ccn3)oc12 (single isomer, unassigned) [Example 25]
21 | 2.1 nM | 7.6 nM | COc1cc(C(=O)N2CC(C)(CC(C)O)OC[C@H]2C)cc2nc(NC(C)c3cc(Cl)ccn3)oc12 (single isomer, unassigned) [Example 27]
22 | 1.9 nM | 8.8 nM | CC[C@@H]1COC(C)(CCO)CN1C(=O)c1cc(OC)c2oc(NCc3cc(Cl)ccn3)nc2c1 (single isomer, unassigned) [Example 29]
23 | 11 nM | 34 nM | COCC1COC(C)(CCO)CN1C(=O)c1cc(OC)c2oc(NCc3cc(Cl)ccn3)nc2c1 (single isomer, unassigned) [Example 31]
24 | 7.2 nM | 14 nM | COc1cc(C(=O)N2CC(C)(CCO)OCC2(C)C)cc2nc(NCc3cc(Cl)ccn3)oc12 (single isomer, unassigned) [Example 33, (2-{[(4-Chloropyridin-2-yl)methyl]amino}-7-methoxy-1,3-benzoxazol-5-yl) [2-(2-hydroxyethyl)-2,5,5-trimethylmorpholin-4-yl]methanone]
25 | 5 nM | 71 nM | COc1cc(C(=O)N2CC(C)(CC(C)O)OCC2(C)C)cc2nc(NCc3cc(Cl)ccn3)oc12 (single isomer, unassigned) [Example 35, (2-{[(4-Chloropyridin-2-yl)methyl]amino}-7-methoxy-1,3-benzoxazol-5-yl) [2-(2-hydroxypropyl)-2,5,5-trimethylmorpholin-4-yl]methanone]
26 | 39 nM | 57 nM | COc1cc(C(=O)N2CC(C)OCC2C(C)(C)O)cc2nc(NCc3cc(Cl)ccn3)oc12 (single isomer, unassigned) [Example 36, (2-{[(4-Chloropyridin-2-yl)methyl]amino}-7-methoxy-1,3-benzoxazol-5-yl) [5-(2-hydroxypropan-2-yl)-2-methylmorpholin-4-yl]methanone]
